# According to paper PMC12188386, “Selective CBP/EP300 Bromodomain Inhibitors: Novel Epigenetic Tools to Counter TNF-α-Driven Inflammation” (JACS Au, 2025):
# Tests used:
# CBP = CBP (Homo sapiens, UniProt Q92793); assay: commercial Bromoscan assay; type: binding
# Protocol: was used as the calibration curve. To obtain saturated solutions of the compounds of interest, in duplicates 4.4 µL of a 10 or 5 mM stock in DMSO was added to 436 µL Buffer (PBS, pH = 7.4), to give a final concentration of 100 or 50 µM. Samples were incubated on a shaker (500 rpm) at 37°C for 90 minutes and then filtered (Millex-GV 13 mm, 0.22 µm). 304 µL of the filtrate was mixed with 76 µL of acetonitrile on a dilution plate, from which 350 µL was transferred to a UV-plate and UV-absorption was read using a SpectraMax M5 (Molecular devices). The absorbance was blank-corrected and compared to the calibration curve to […]
# solubility. […]
# lower solubility (2) compounds respectively in a 12.5 w/v% CAPTISOL® solution in water. […] Based on the known density of 12.5 % CAPTISOL® solution (d = 1.05755 g/mL at 25 °C), the precise weight of the resulting solution and so the required amount of water by weight was calculated. […] In duplicates, aliquots of the filtrates were taken and diluted with blank 12.5 % CAPTISOL® water solution in either a 1:14 (higher sol. compounds) or 1:7 (lower sol. compounds) ratio, 350 µL was transferred to a 96-Well Plate (Greiner, UV-star) then UV absorption (240-400 nm, 10 nm steps) was measured using a SpectraMax M5 (Molecular devices). […] The calculated concentrations are available in Table S4. […]
# The bromodomain concentration in the eluates was measured by qPCR. […]
# [1] = system: TNF-α-induced cytokine expression in THP-1 cells; assay: cytokine mRNA expression by RT-qPCR; type: cell-based, human; details: 1 h co-treatment of THP-1 cells with 10 ng/mL TNF-α and 1 μM compound
# Protocol: For cytokine expression determination, 5x10^5 THP-1 cells were plated on 12 well plates the day prior to treatment with 10 ng/mL recombinant human TNF -α (aa 77-233) protein (R&D systems, 10291 -TA) and compounds at a final concentration of 0.1 % DMSO. In all cases, total
# RNA was extracted using the NucleoSpin® RNA kit (Machery -Nagel) and used for cDNA synthesis with the High -Capacity cDNA Reverse Transcription kit (Applied Biosystems). RT-qPCR reactions were performed using PowerSYBR™ green PCR Master Mix (Applied Biosystems) and a LightCycler® 480 (Roche). cDNA was denatured for 10 min at 95 °C followed by 40 cycles of 15 s at 95 °C and 1 min at 60 °C. Cp values were determined as the maximum of the second derivative and target gene expression was compared to that of hprt from the same sample using the 2-ΔCp method. Gene expression was then normalized to the average of the control samples from the same day, or all biological replicates. […]
# [2] = system: leukemia, melanoma and breast cancer cell lines; assay: NCI-60 antiproliferation screen; type: cell-based, human; details: 10 µM
# Protocol: (§1) Adapted from NCI-60 Screening Methodology, one-dose screen:20 Briefly, human tumor cell lines, grown in RPMI 1640 containing 5% FBS and 2 mM L-glutamine, were plated in 96 well plates at densities ranging from 5,000 to 40,000 cells/well 24 h prior to addition of test compounds (here 10 μM 2). 400x solutions of test compounds were prepared in DMSO, then diluted to 2x in medium supplemented with 50 μg/mL gentamicin. 100 μl of this 2x stock was added to cells previously plated in 100 μl medium, resulting in the desired final compound concentration. Cells were fixed in situ with cold TCA: untreated cells at the time of compound addition (Tz) and treated cells 48 h after addition of compound (Ti). Cells were washed, then su f rh damine s uti n μ at . w/v in acetic acid was added to each well and incubated for 10 minutes at room temperature. After washing again, the plates were air dried and bound stain solubilized with 10 mM Trizma base before absorbance was […]
# (§2) Percentage growth (%Growth) was calculated as follows:
# (§3) when Ti ≥ Tz, %Growth = Ti − Tz x 100 where Ti = absorbance from compound treated cells, Tz = absorbance from untreated cells at time zero, and C = absorbance from control (DMSO) treated cells. […]
# DU-145 = assay: NCI-60 one-dose screen; type: cell-based, human; details: 10 µM, 48 h, Prostate Cancer
# Protocol: as §1, §2, §3
# MOLT-4 = assay: NCI-60 one-dose screen; type: cell-based, human; details: 10 µM, 48 h, Leukemia
# Protocol: as §1, §2, §3
# OVCAR-5 = assay: NCI-60 one-dose screen; type: cell-based, human; details: 10 µM, 48 h, Ovarian Cancer
# Protocol: as §1, §2, §3
# SF-268 = assay: NCI-60 one-dose screen; type: cell-based, human; details: 10 µM, 48 h, CNS Cancer
# Protocol: as §1, §2, §3
# SR = assay: NCI-60 one-dose screen; type: cell-based, human; details: 10 µM, 48 h, Leukemia
# Protocol: as §1, §2, §3
# Sequence of CBP (Q92793 1085-1192 limits assumed): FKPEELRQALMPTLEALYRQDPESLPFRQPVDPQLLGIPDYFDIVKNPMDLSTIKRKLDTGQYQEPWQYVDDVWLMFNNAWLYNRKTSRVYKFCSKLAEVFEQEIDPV
smiles,measurement,setting,value
Cc1cc2c(NC(=O)c3cc(NC(=O)c4ccco4)cc(-c4ccn(C)n4)c3)cccc2nn1 [Compound 2],Kd,CBP,9 nM
same,"TNF-α-induced expression of il1β, il8, mcp-1 and tnf-α (mRNA)",[1],inhibited expression to a greater extent than the less potent but more soluble inhibitor 5
same,"growth of cancer cell lines (NCI-60), in words",[2],"strongly inhibit the growth of leukemia, melanoma and breast cancer cell lines"
same,%Growth,DU-145,87%
same,%Growth,MOLT-4,53%
same,%Growth,OVCAR-5,89%
same,%Growth,SF-268,72%
same,%Growth,SR,19%
